Article PMC9475553, “SHF Acts as a Novel Tumor Suppressor in Glioblastoma Multiforme by Disrupting STAT3 Dimerization” (Advanced Science, 2022)

Legend:
STAT3 dimerization = assay: FRET assay: STAT3 dimerization in U251 cells; format: cell-based, human; conditions: U251 cells transfected for 24 h, then C16 2 h; n=3, P < 0.01
Method: Spectral fluorescence resonance energy transfer (FRET) assay was used to examine the dimerization of STAT3 and interaction between STAT3 and SHF. The procedure was performed as described previously.^[ [46] ^] Briefly, U251 cells were seeded at a density of 20 000 cells/compartment on coverslips coated with 1% poly‐L‐lysine (Sigma) in 24 well‐plates. For detecting SHF inhibiting STAT3 dimerization, ectopic SHF‐expressing stable U251 cells were transfected with STAT3‐DsRed and STAT3‐EGFP. For detecting SHF binding STAT3, U251 cells were transfected with SHF‐DsRed and STAT3‐EGFP. Cells were imaged on a Leica TCS SP8 confocal microscope (40× objective and 10× objective, 488 nm Argon laser line) after 24 h. Cells were excited with 488 nm laser (donor), and the emission of the acceptor DsRed was recorded at 565 nm. The FRET efficiency was calculated on a pixel‐by‐pixel basis with the following equation: FRET efficiency = FRETcorr / (FRETcorr + Donor). […] To increase the reliability of the calculations and prevent noise from distorting the calculated ratio, we excluded pixels below 50 intensity units and saturated pixels from the calculations and set their intensities to zero. […]
Supplementary Fig. 8 Quantitative analysis of normalized FRET ratio in U251 cells (n=3, […]

[1] = test system: STAT3 transcriptional activity; assay: STAT3 transcriptional reporter (SIE luciferase) assay in U87 cells; format: cell-based, human; conditions: C16 for 12 h, n = 3, p < 0.01
Method: Figure 7 Peptide derived from the STAT3‐binding sites of SHF is an effective GBM suppressive strategy. A) Binding model between SHF and STAT3 using ZDOCK server. […] B) IF staining determined the cell penetrability and nuclear‐localization of C16. U251 cells were incubated with C16 or SC for 2 h and performed IF staining using the indicated antibodies. Bars, 10 µm. C) The statical analysis of adsorption equilibrium assay detecting the binding of C16 and SC with recombinant STAT3. D) Pull‐down assay indicating C16 binds STAT3. GST‐STAT3 was incubated with C16 or SC for 2 h, and the pull‐down assay was performed using Anti‐His magnetic beads. E) IP assay showing the effect of C16 on STAT3 dimerization. 293T cells transfected with indicated vectors were incubated with C16 for 2 h. The relative quantification of STAT3 dimerization was listed. F) IP assay detecting the effect of C16 on the interaction of STAT3 and DNMT1. […] The relative quantification of STAT3/DNMT1 interaction was listed. […] The relative quantification of STAT3/DNMT1 interaction was listed. […] Positive cells were quantified 20 randomly selected fields per mouse (n = 6, Student's t‐test, **p < 0.01). […]
STAT3 transcriptional activity was evaluated by a luciferase reporter system according our previously study.^[ [19] ^] […] Cells were collected, lysed, and measured using the Dual‐Glo Luciferase Assay System kit (Promega).

For “C16: peptide spanning SHF amino acids 388–421, palmitic acid at the N-terminus, amidated C-terminus, 3× His tags added to the C-terminal (PFSSVPEIVHHYASRKLPIKGAEHMSLLYPVAIR; palmitic acid at the N-terminus; amidated C-terminus; left off: 3× His tags, C-terminal, kept)”, the “inhibition of STAT3 dimerization (FRET)” value (STAT3 dimerization) was “effectively inhibits STAT3 dimerization” and the STAT3 transcriptional activity [1] was “significant decrease”.
